The record followed here is ChEMBL document CHEMBL1134604, “2-Alkynyl-8-aryl-9-methyladenines as novel adenosine receptor antagonists: their synthesis and structure-activity relationships toward hepatic glucose production induced via agonism of the A(2B) receptor” (J Med Chem, 2001).

Where only a bound is given, the exact number is not on record here.

Assay [1] has as its target T1, Adenosine receptor A1 (Homo sapiens, UniProt P30542).
T1 sequence (P30542 whole entry): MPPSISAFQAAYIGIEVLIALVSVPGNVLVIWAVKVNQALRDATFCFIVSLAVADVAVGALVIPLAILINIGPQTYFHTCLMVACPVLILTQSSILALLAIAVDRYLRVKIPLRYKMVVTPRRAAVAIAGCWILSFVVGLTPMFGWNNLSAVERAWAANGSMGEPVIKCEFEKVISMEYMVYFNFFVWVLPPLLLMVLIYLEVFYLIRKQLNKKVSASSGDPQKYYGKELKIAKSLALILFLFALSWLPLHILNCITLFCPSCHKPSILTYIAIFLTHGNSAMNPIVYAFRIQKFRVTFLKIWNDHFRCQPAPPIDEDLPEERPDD
The assay can be described thus: Binding Affinity towards Adenosine A1 receptor expressed in CHO-K1 cells versus [3H]CCPA. Format: cell-based.

Assay [2] addresses T2, Adenosine receptor A2b (Homo sapiens, UniProt P29275).
T2 sequence (P29275 whole entry): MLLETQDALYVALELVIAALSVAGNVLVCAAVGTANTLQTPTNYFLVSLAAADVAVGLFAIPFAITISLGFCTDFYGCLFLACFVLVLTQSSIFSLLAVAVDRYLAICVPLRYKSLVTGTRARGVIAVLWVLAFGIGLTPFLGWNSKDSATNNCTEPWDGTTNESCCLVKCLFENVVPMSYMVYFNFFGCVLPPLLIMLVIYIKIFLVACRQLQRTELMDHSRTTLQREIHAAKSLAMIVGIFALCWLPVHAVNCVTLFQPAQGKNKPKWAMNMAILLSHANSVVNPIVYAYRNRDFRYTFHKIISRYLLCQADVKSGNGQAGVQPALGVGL
Nature of the assay: Inhibitory activity on NECA-induced cyclic-AMP accumulation in CHO-K1 cells expressing human Adenosine A2B receptor. Format: functional, cell-based.

For assay [3], the target named is T3, Adenosine receptor A1 (Rattus norvegicus, UniProt P25099).
T3 sequence (P25099 whole entry): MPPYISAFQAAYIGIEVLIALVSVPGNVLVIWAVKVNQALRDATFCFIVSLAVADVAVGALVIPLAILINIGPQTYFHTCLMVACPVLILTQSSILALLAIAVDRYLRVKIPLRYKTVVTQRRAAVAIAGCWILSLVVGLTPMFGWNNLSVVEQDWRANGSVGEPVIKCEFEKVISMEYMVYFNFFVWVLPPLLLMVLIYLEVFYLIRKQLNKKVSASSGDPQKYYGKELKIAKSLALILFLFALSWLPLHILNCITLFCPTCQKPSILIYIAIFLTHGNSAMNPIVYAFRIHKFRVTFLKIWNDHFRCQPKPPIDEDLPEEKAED
Nature of the assay: Inhibitory activity against cyclic AMP production in rat Adenosine A1 receptor assay.

Assay [4] concerns the target T4, Adenosine receptor A3 (Homo sapiens, UniProt P0DMS8).
T4 sequence (P0DMS8 whole entry): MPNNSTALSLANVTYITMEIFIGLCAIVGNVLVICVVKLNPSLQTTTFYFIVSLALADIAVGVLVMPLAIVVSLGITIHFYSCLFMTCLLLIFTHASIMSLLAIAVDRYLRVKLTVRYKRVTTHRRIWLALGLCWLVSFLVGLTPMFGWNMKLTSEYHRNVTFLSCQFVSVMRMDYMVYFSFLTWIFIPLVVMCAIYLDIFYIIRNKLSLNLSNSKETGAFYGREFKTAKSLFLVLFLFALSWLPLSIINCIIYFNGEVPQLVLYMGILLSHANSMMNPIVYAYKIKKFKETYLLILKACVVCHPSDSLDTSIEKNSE
Nature of the assay: Binding affinity towards adenosine A3 receptor expressed in HEK293 cells versus [125I]AB-MECA. Format: cell-based.

Assay [5] concerns the target T5, Adenosine receptor A2a (Homo sapiens, UniProt P29274). The assay can be described thus: Binding Affinity towards Adenosine A2A receptor expressed in HEK293 cells versus [3H]CGS-21680. Type of assay: cell-based.
In assay [6] the target is T6, Adenosine receptor A2b (Rattus norvegicus, UniProt P29276).
T6 sequence (P29276 whole entry): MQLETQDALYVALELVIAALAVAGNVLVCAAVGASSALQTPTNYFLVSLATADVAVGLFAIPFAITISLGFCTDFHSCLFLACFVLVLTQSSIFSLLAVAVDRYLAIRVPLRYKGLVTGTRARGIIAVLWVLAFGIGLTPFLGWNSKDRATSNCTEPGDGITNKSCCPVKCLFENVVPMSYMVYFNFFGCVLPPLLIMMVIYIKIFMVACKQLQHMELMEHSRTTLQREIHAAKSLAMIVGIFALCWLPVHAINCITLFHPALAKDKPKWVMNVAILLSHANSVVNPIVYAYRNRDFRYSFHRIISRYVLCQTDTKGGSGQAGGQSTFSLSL
Nature of the assay: Inhibitory activity on N-ethylcarboxamidoadenosine (NECA)-induced glucose production in primary cultured rat hepatocytes. Format: functional, cell-based, Hepatocyte.

Assay [7] has as its target T2, Adenosine receptor A2b. The assay can be described thus: Inhibitory activity against cyclic AMP production in human Adenosine A2B receptor assay.
The target of assay [8] is T5, Adenosine receptor A2a. The assay can be described thus: Binding Affinity for adenosine A2A receptor expressed in HEK293 cells compared to [3H]CGS-21680. Format: cell-based.
For assay [9], the target named is T4, Adenosine receptor A3. Nature of the assay: Inhibitory activity against cyclic AMP production in human adenosine A3 receptor assay.
In assay [10] the target is Adenosine receptor A2a (Rattus norvegicus) (UniProt P30543). The assay can be described thus: Inhibitory activity against cyclic AMP production in rat Adenosine A2A receptor assay.
Sequence of Adenosine receptor A2a (Rattus norvegicus) (P30543 whole entry, looked up): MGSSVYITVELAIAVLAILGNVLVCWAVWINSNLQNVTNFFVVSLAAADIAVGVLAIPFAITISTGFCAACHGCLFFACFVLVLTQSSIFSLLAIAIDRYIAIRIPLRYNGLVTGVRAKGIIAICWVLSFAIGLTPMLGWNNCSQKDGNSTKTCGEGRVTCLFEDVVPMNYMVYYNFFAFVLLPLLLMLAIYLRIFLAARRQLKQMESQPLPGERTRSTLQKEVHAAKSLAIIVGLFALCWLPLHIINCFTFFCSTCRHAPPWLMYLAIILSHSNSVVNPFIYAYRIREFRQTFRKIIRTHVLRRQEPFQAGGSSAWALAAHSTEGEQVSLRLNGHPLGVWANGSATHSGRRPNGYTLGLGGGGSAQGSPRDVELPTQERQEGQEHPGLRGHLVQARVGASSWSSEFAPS

T5 sequence (P29274 whole entry): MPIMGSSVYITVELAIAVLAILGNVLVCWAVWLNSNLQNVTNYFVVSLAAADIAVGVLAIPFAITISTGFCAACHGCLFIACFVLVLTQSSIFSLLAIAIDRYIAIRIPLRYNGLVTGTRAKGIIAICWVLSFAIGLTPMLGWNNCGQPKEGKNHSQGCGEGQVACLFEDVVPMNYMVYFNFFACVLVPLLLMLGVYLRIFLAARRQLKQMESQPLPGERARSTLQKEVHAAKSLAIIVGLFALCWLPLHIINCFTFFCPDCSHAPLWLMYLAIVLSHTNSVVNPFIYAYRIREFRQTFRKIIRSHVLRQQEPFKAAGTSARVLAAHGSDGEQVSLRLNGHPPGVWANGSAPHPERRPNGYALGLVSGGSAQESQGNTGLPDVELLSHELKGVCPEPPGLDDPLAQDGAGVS

For `CCCn1c(=O)c2c(nc(/C=C/c3ccc(OC)c(OC)c3)n2C)n(CCC)c1=O`, the inhibitory constant (Ki) in [1] was more than 10000 nM; in assay [4] it was 2500 nM. For the same compound, the results for the half-maximal inhibitory concentration (IC50) in [2] and in [3] were 1500 nM and 62 nM, respectively.
On to `Cn1c(-c2cccc(F)c2)nc2c(N)nc(C#CC3(O)CCCCCC3)nc21`, for which the values for the inhibitory constant (Ki) in assay [1] and in assay [5] were 27 nM and 19 nM, respectively. Moreover, the figures for the IC50 in assay [2] and in assay [6] were 49 nM and 440 nM, respectively.
As for `Cn1c(-c2cccc(F)c2)nc2c(N)nc(C#CC3(O)CCCC3)nc21`, the figures for the Ki in assay [1] and in assay [4] were 20 nM and 1100 nM, respectively. The IC50 in assay [2] is 63 nM; in assay [6], 420 nM.
In assay [6], `COc1cccc(-c2nc3c(N)nc(C#CC4(O)CCCCC4)nc3n2C)c1` had a half-inhibitory concentration (IC50) of 1600 nM.
Still for that read-out and setting: as for `Cn1c(-c2cccc(F)c2)nc2c(N)nc(C#CC3CCCC3)nc21`, the figure is 720 nM.
Take `Cn1c(-c2cccc(F)c2)nc2c(N)nc(C#CC(C)(C)O)nc21`: the Ki is 30 nM in assay [1], 9.1 nM in assay [5] and 2100 nM in assay [4]. The IC50 is 150 nM in assay [2] and 510 nM in [6].
With `Cn1c(-c2ccccc2F)nc2c(N)nc(C#CC3(O)CCCCC3)nc21`, the results for the inhibitory constant (Ki) in assay [1] and in assay [5] were 19 nM and 15 nM, respectively. Further, the IC50 in assay [2] was found to be 77 nM; in [6], 440 nM.
For `Cn1c(-c2cccc(F)c2)nc2c(N)nc(C#CC3(O)CCCCC3)nc21`, the Ki is 14 nM in assay [1], 16 nM in assay [5] and 540 nM in assay [4]. The half-maximal inhibitory concentration (IC50) in assay [2] came out at 23 nM; in assay [6], 250 nM.
With `Cn1c(-c2ccc(F)cc2)nc2c(N)nc(C#CC3(O)CCCCC3)nc21`, the concentration for half-maximal inhibition (IC50) in [2] came out at 160 nM; in [6], 1200 nM.
On to `Cn1c(-c2cccc(F)c2)nc2c(N)ncnc21`, for which inhibition in assay [6] was half-maximal at 5300 nM (IC50).
For `Cn1c(-c2cccs2)nc2c(N)nc(C#CC3(O)CCCCC3)nc21`, in assay [6], the midpoint of inhibition, the IC50, lay at 750 nM.
For `Cn1c(-c2cccc(C#N)c2)nc2c(N)nc(C#CC3(O)CCCCC3)nc21`, the Ki in assay [1] was 130 nM; in assay [5], 13 nM. Also, the results for the IC50 in [2] and in [6] were 72 nM and 410 nM, respectively.
As for `Cn1c(-c2ccco2)nc2c(N)nc(C#CC3(O)CCCCC3)nc21`, the inhibitory constant (Ki) in assay [1] turned out to be 25 nM; in assay [5] it was 11 nM. The IC50 in [2] was 14 nM; in assay [6] it was 220 nM.
Turning to `COc1ccc(-c2nc3c(N)nc(C#CC4(O)CCCCC4)nc3n2C)cc1F`, the IC50 in [6] was more than 10000 nM.
The same measure, in the same setting: as for `Cc1cccc(-c2nc3c(N)nc(C#CC4(O)CCCCC4)nc3n2C)c1`, the figure is 970 nM.
Still for that read-out and setting: as for `Cn1c(-c2cccc(Cl)c2)nc2c(N)nc(C#CC3(O)CCCCC3)nc21`, the figure is 490 nM.
On to `CCC(O)(C#Cc1nc(N)c2nc(-c3cccc(F)c3)n(C)c2n1)CC`, for which the inhibitory constant (Ki) in [1] worked out at 29 nM; in assay [5] it was 13 nM; in assay [4], 330 nM. For the same compound, the IC50 in assay [2] turned out to be 140 nM; in assay [6], 540 nM.
Regarding `Cn1c(-c2ccc(Cl)cc2)nc2c(N)nc(C#CC3(O)CCCCC3)nc21`, the IC50 in [2] is 500 nM; in assay [6], 6300 nM.
In turn, `Cn1c(-c2ccccc2)nc2c(N)nc(C#CC3(O)CCCCC3)nc21` showed an IC50 in assay [6] of 760 nM.
The same measure, in the same setting: as for `Cn1c(-c2ccccn2)nc2c(N)nc(C#CC3(O)CCCCC3)nc21`, the figure is 1300 nM.
Consider `Cn1c(-c2cccc(C(F)(F)F)c2)nc2c(N)nc(C#CC3(O)CCCCC3)nc21`, for which the IC50 is 5600 nM in assay [2] and more than 10000 nM in assay [6].
`Cn1cnc2c(N)nc(C#CC3(O)CCCCC3)nc21`: half-maximal inhibition in assay [6] (IC50) was put at 4400 nM.
Regarding `COC(=O)C1=C2C=CN(C)C=C2c2nc(-c3ccccc3)nn2C1`, the figures for the inhibitory constant (Ki) in assay [1] and in [8] were more than 10000 nM and more than 10 µM, respectively. Further, the values for the IC50 in assay [7], in assay [2] and in [6] were 3000 nM, 3000 nM and more than 10000 nM, respectively.
As for `Cn1c(=O)c2[nH]c(-c3ccccc3)nc2n(C)c1=O` [8-PHENYL THEOPHYLLINE], the IC50 in assay [7] is 210 nM; in assay [2], 210 nM; in assay [9], 1250 nM; in assay [6], 1100 nM; in assay [10], 454 nM.
In the case of `O=C(/C=C/c1c(-c2ccccc2)nn2ccccc12)N1CCCC[C@@H]1CCO` [FK453], the results for the Ki in [1] and in assay [4] were 18 nM and 2800 nM, respectively. The IC50 in assay [3] was determined as 17.2 nM; in [6], 8100 nM.
